Values after ≈ are worked out from the molar mass of the structure shown. Read-outs that look alike come from different tables or passages of the source.
Columns and labels:
drug-resistant bacteria = conditions: cited from earlier work
[1] = test system: Escherichia coli LA290 R64; test: MIC, serial dilution on nutrient agar; assay type: cell-based; conditions: LA290R64, 18 h, read-out: Minimum Inhibitory Concentrations
[2] = test system: Escherichia coli LA290 R55; test: MIC, serial dilution on nutrient agar; assay type: cell-based; conditions: LA290R55, 18 h, read-out: Minimum Inhibitory Concentrations
[3] = test system: Mycobacterium smegmatis ATCC 607; test: MIC, serial dilution on nutrient agar; assay type: cell-based; conditions: Mycolicibacterium smegmatis, ATCC607; Mycobacterium smegmatis ATCC 607; nutrient agar, 37°C, 18 hours; read-out: Minimum Inhibitory Concentrations
[4] = test system: Pseudomonas aeruginosa No.12; test: MIC, serial dilution on nutrient agar; assay type: cell-based; conditions: Pseudomonas aeruginosa No.12; nutrient agar, 37°C, 18 hours; read-out: Minimum Inhibitory Concentrations
Escherichia coli W677 = test: MIC, serial dilution on nutrient agar; assay type: cell-based; conditions: Escherichia coli W677; nutrient agar, 37°C, 18 hours; read-out: Minimum Inhibitory Concentrations
[5] = test system: Escherichia coli JR66/W677; test: MIC, serial dilution on nutrient agar; assay type: cell-based; conditions: read-out: Minimum Inhibitory Concentrations
[6] = test system: Pseudomonas aeruginosa TI-13; test: MIC, serial dilution on nutrient agar; assay type: cell-based; conditions: TI13; Pseudomonas aeruginosa TI-13; nutrient agar, 37°C, 18 hours; read-out: Minimum Inhibitory Concentrations
[7] = test system: Klebsiella pneumoniae PCI 602; test: MIC, serial dilution on nutrient agar; assay type: cell-based; conditions: read-out: Minimum Inhibitory Concentrations
Escherichia coli K-12 = test: MIC, serial dilution on nutrient agar; assay type: cell-based; conditions: read-out: Minimum Inhibitory Concentrations
[8] = test system: Pseudomonas aeruginosa 99; test: MIC, serial dilution on nutrient agar; assay type: cell-based; conditions: Pseudomonas aeruginosa 99; nutrient agar, 37°C, 18 hours; read-out: Minimum Inhibitory Concentrations
[9] = test system: Staphylococcus aureus FDA 209P; test: MIC, serial dilution on nutrient agar; assay type: cell-based; conditions: FDA209P, read-out: Minimum Inhibitory Concentrations
[10] = test system: Escherichia coli K-12 ML 1410; test: MIC, serial dilution on nutrient agar; assay type: cell-based; conditions: read-out: Minimum Inhibitory Concentrations
[11] = test system: Escherichia coli K-12 ML 1629; test: MIC, serial dilution on nutrient agar; assay type: cell-based; conditions: read-out: Minimum Inhibitory Concentrations
[12] = test system: Escherichia coli LA290 R56; test: MIC, serial dilution on nutrient agar; assay type: cell-based; conditions: LA290R56, 18 h, read-out: Minimum Inhibitory Concentrations
[13] = test system: Escherichia coli K-12 ML 1630; test: MIC, serial dilution on nutrient agar; assay type: cell-based; conditions: K12ML1630, 37°C, 18 hours, read-out: Minimum Inhibitory Concentrations
Method: (§1) The minimum inhibitory concentrations (mcg/ml) of 1,2'-di-N-[(S)-4-amino-2-hydroxybutyryl]-kanamycin B (abbreviated as 1,2'-AHB-KMB), 1,2'-di-N-[(S)-4-amino-2-hydroxybutyryl]-3',4'-dideoxykanamycin B (abbreviated as 1,2'-AHB-DKB), 1,2'-di-N-DL-isoseryl-3',4'-dideoxykanamycin B (abbreviated as 1,2'-IS-DKB) and 1,2'-di-N-DL-isoseryl-kanamycin B (abbreviated as 1,2'-IS-KMB) against various microorganisms were determined according to serial dilution method using nutrient agar medium at 37°C, the estimation being effected after 18 hours incubation. For comparison, the minimum inhibitory concentrations of kanamycin B (abbreviated as KMB) and 3',4'-dideoxykanamycin B (abbreviated as DKB) were also determined in the same manner as mentioned above.

Escherichia coli NIHJ = test: MIC, serial dilution on nutrient agar; assay type: cell-based; conditions: read-out: Minimum Inhibitory Concentrations
[14] = test system: Klebsiella pneumoniae 22 -3038; test: MIC, serial dilution on nutrient agar; assay type: cell-based; conditions: read-out: Minimum Inhibitory Concentrations
[15] = test system: Pseudomonas aeruginosa GN315; test: MIC, serial dilution on nutrient agar; assay type: cell-based; conditions: Pseudomonas aeruginosa GN315; nutrient agar, 37°C, 18 hours; read-out: Minimum Inhibitory Concentrations
[16] = test system: Pseudomonas aeruginosa A3; test: MIC, serial dilution on nutrient agar; assay type: cell-based; conditions: read-out: Minimum Inhibitory Concentrations
[17] = test system: Staphylococcus aureus Terejima; test: MIC, serial dilution on nutrient agar; assay type: cell-based; conditions: Staphylococcus aureus Terejima; nutrient agar, 37°C, 18 hours; read-out: Minimum Inhibitory Concentrations
Salmonella typhosa T-63 = test: MIC, serial dilution on nutrient agar; assay type: cell-based; conditions: Salmonella enterica, 18 h, read-out: Minimum Inhibitory Concentrations
[18] = test system: Bacillus subtilis PCI 219; test: MIC, serial dilution on nutrient agar; assay type: cell-based; conditions: PCI219; Bacillus subtilis PCI 219; nutrient agar, 37°C, 18 hours; read-out: Minimum Inhibitory Concentrations
[19] = test system: Salmonella enteritidis 1891; test: MIC, serial dilution on nutrient agar; assay type: cell-based; conditions: Salmonella enterica, ENTERITIDIS, 18 h, read-out: Minimum Inhibitory Concentrations
Sarcina lutea PCI 1001 = test: MIC, serial dilution on nutrient agar; assay type: cell-based; conditions: Micrococcus luteus, PCI1001, 18 h, read-out: Minimum Inhibitory Concentrations
[20] = test system: Corynebacterium bovis 1810; test: MIC, serial dilution on nutrient agar; assay type: cell-based; conditions: Corynebacterium bovis, 1810, 18 h, read-out: Minimum Inhibitory Concentrations
[21] = test system: Escherichia coli K-12 ML 1410 R81; test: MIC, serial dilution on nutrient agar; assay type: cell-based; conditions: 18 h, read-out: Minimum Inhibitory Concentrations
Bacillus anthracis = test: microbe, parasite or virus in culture; assay type: cell-based; conditions: 18 h, read-out: Minimum Inhibitory Concentrations
Shigella sonnei JS 11746 = test: MIC, serial dilution on nutrient agar; assay type: cell-based; conditions: JS11746, 37°C, 18 hours, read-out: Minimum Inhibitory Concentrations
Method: as §1

[22] = test system: Shigella flexneri 4b JS 11811; test: MIC, serial dilution on nutrient agar; assay type: cell-based; conditions: 4BJS11811, 37°C, 18 hours, read-out: Minimum Inhibitory Concentrations
Method: as §1

[23] = test system: Bacillus cereus ATCC 10702; test: MIC, serial dilution on nutrient agar; assay type: cell-based; conditions: Bacillus cereus, ATCC10702, 18 h, read-out: Minimum Inhibitory Concentrations
Proteus vulgaris OX 19 = test: MIC, serial dilution on nutrient agar; assay type: cell-based; conditions: Proteus vulgaris, OX19, 18 h, read-out: Minimum Inhibitory Concentrations
[24] = test system: Staphylococcus aureus Smith; test: MIC, serial dilution on nutrient agar; assay type: cell-based; conditions: Staphylococcus aureus Smith; nutrient agar, 37°C, 18 hours; read-out: Minimum Inhibitory Concentrations
[25] = test system: Bacillus subtilis NRRL B-558; test: MIC, serial dilution on nutrient agar; assay type: cell-based; conditions: NRRLB558; Bacillus subtilis NRRL B-558; nutrient agar, 37°C, 18 hours; read-out: Minimum Inhibitory Concentrations
[26] = test system: Shigella dysenteriae JS 11910; test: MIC, serial dilution on nutrient agar; assay type: cell-based; conditions: JS11910, 18 h, read-out: Minimum Inhibitory Concentrations

SMILES: CNC[C@H]1O[C@H](O[C@H]2[C@H](O)[C@@H](O[C@H]3O[C@H](CO)[C@@H](O)[C@H](N)[C@H]3O)[C@H](N)C[C@@H]2N)[C@H](N)C[C@@H]1O [3'-deoxy-6'-N-methylkanamycin B]
- antibacterial activity against the drug-resistant bacteria (drug-resistant bacteria): improved antibacterial activity

SMILES: NC[C@H]1O[C@H](O[C@H]2[C@H](O)[C@@H](O)[C@H](N)C[C@@H]2N)[C@H](N)C[C@@H]1O [3'-deoxyneamine]
- antibacterial activity against the drug-resistant bacteria (drug-resistant bacteria): improved antibacterial activity

SMILES: NCC(O)C(=O)N[C@H]1[C@@H](O[C@H]2[C@H](O)[C@@H](O[C@H]3O[C@H](CO)[C@@H](O)[C@H](N)[C@H]3O)[C@H](NC(=O)C(O)CN)C[C@@H]2N)O[C@H](CN)[C@@H](O)[C@@H]1O (mixture of isomers) [1,2'-IS-KMB, 1,2'-di-N-DL-isoseryl-kanamycin B]
- MIC [1]: 6.25 µg/mL
- MIC [2]: 6.25 µg/mL
- MIC [3]: 1.56 µg/mL
- MIC [4]: 25 µg/mL
- MIC (Escherichia coli W677): 3.13 µg/mL
- MIC ([5]; Escherichia coli JR66/W677, nutrient agar, 37°C, 18 hours): 25 µg/mL
- MIC [6]: 12.5 µg/mL
- MIC ([7]; PCI602, Klebsiella pneumoniae PCI 602, nutrient agar, 37°C, 18 hours): 3.13 µg/mL
- MIC (Escherichia coli K-12; K12, Escherichia coli K-12, nutrient agar, 37°C, 18 hours): 6.25 µg/mL
- MIC [8]: 50 µg/mL
- MIC ([9]; Staphylococcus aureus FDA 209P, nutrient agar, 37°C, 18 hours): 3.13 µg/mL
- MIC ([10]; K12ML1410, Escherichia coli K-12 ML 1410, nutrient agar, 37°C, 18 hours): 6.25 µg/mL
- MIC ([11]; K12ML1629, Escherichia coli K-12 ML 1629, nutrient agar, 37°C, 18 hours): 6.25 µg/mL
- MIC [12]: 6.25 µg/mL
- MIC [13]: 6.25 µg/mL
- MIC (Escherichia coli NIHJ; Escherichia coli NIHJ, nutrient agar, 37°C, 18 hours): 6.25 µg/mL
- MIC ([14]; 223038, Klebsiella pneumoniae 22 -3038, nutrient agar, 37°C, 18 hours): 12.5 µg/mL
- MIC [15]: > 100 µg/mL
- MIC ([16]; Pseudomonas aeruginosa A3, nutrient agar, 37°C, 18 hours): 12.5 µg/mL

SMILES: NCC[C@H](O)C(=O)N[C@H]1[C@@H](O[C@H]2[C@H](O)[C@@H](O[C@H]3O[C@H](CO)[C@@H](O)[C@H](N)[C@H]3O)[C@H](NC(=O)[C@@H](O)CCN)C[C@@H]2N)O[C@H](CN)[C@@H](O)[C@@H]1O [1,2'-AHB-KMB, 1,2'-di-N-[(S)-4-amino-2-hydroxybutyryl]-kanamycin B]
- MIC [1]: 1.56 µg/mL (≈ 2.27 µM)
- MIC [17]: < 0.2 µg/mL
- MIC [2]: 3.13 µg/mL (≈ 4.56 µM)
- MIC [3]: 0.78 µg/mL (≈ 1.14 µM)
- MIC [4]: 25 µg/mL (≈ 36.5 µM)
- MIC (Escherichia coli W677): 1.56 µg/mL (≈ 2.27 µM)
- MIC ([5]; Escherichia coli, JR66/W677, 18 h): 6.25 µg/mL (≈ 9.11 µM)
- MIC (Salmonella typhosa T-63): 3.13 µg/mL (≈ 4.56 µM)
- MIC [6]: 25 µg/mL (≈ 36.5 µM)
- MIC ([7]; Klebsiella pneumoniae, PCI602, 18 h): 3.13 µg/mL (≈ 4.56 µM)
- MIC (Escherichia coli K-12; Escherichia coli, K12, 18 h): 3.13 µg/mL (≈ 4.56 µM)
- MIC [8]: 50 µg/mL (≈ 72.9 µM)
- MIC [18]: < 0.2 µg/mL
- MIC ([9]; Staphylococcus aureus, 18 h): 6.25 µg/mL (≈ 9.11 µM)
- MIC ([10]; Escherichia coli, K12ML1410, 18 h): 3.13 µg/mL (≈ 4.56 µM)
- MIC [19]: 3.13 µg/mL (≈ 4.56 µM)
- MIC ([11]; Escherichia coli, K12ML1629, 18 h): 3.13 µg/mL (≈ 4.56 µM)
- MIC (Sarcina lutea PCI 1001): 6.25 µg/mL (≈ 9.11 µM)
- MIC [20]: 3.13 µg/mL (≈ 4.56 µM)
- MIC [12]: 1.56 µg/mL (≈ 2.27 µM)
- MIC [21]: 6.25 µg/mL (≈ 9.11 µM)
- MIC (Bacillus anthracis): 0.39 µg/mL (≈ 0.569 µM)
- MIC [13]: 3.13 µg/mL (≈ 4.56 µM)
- MIC (Shigella sonnei JS 11746): 6.25 µg/mL (≈ 9.11 µM)
- MIC [22]: 12.5 µg/mL (≈ 18.2 µM)
- MIC (Escherichia coli NIHJ; Escherichia coli, 18 h): 6.25 µg/mL (≈ 9.11 µM)
- MIC [23]: 12.5 µg/mL (≈ 18.2 µM)
- MIC (Proteus vulgaris OX 19): 3.13 µg/mL (≈ 4.56 µM)
- MIC [24]: 0.39 µg/mL (≈ 0.569 µM)
- MIC [25]: 0.78 µg/mL (≈ 1.14 µM)
- MIC ([14]; Klebsiella pneumoniae, 223038, 18 h): 3.13 µg/mL (≈ 4.56 µM)
- MIC [15]: > 100 µg/mL
- MIC [26]: 12.5 µg/mL (≈ 18.2 µM)
- MIC ([16]; Pseudomonas aeruginosa, A3, 18 h): 12.5 µg/mL (≈ 18.2 µM)

SMILES: NC[C@H]1O[C@H](O[C@H]2[C@H](O)[C@@H](O[C@H]3O[C@H](CO)[C@@H](O)[C@H](N)[C@H]3O)[C@H](N)C[C@@H]2N)[C@H](N)C[C@@H]1O [3'-deoxykanamycin B]
- antibacterial activity against the drug-resistant bacteria (drug-resistant bacteria): improved antibacterial activity

From patent publication US3940382A, “1,2'-Di-N-substituted kanamycin B compounds” (Zaidan Hojin Biseibutsu Kagaku Kenkyu Kai, priority 1973, dated 1976)
